In paper PMC11995724, “Antibiotic target discovery by integrated phenotypic and activity-based profiling of electrophilic fragments” (Cell chemical biology, 2025):
Where a name gives a salt, the structure may show the parent alone.

Test: in vitro
Settings: human, hek293t cells
Procedure: Mammalian cytotoxicity measurement was performed using Cell Titer-Glo 2.0 Cell Viability Assay (Promega, G9243) according to the manufacturer protocol. In brief, mammalian cells were seeded into 384-well white plates (Greiner, 781080) and incubated at 37°C for one day. Compounds from the Cys-Library were dispensed into the assay plate using epMotion 96. The plates were then incubated at 37°C for two days. An equal volume of Cell Titer-Glo 2.0 reagent was added into each well of the assay plate using epMotion 96 and incubated at 22°C for 10 min, followed by luminescence measurement using a Cytation 5 plate reader (BioTek).

SMILES	viability at 48 h, 25 µM
CC(=O)c1cccc(S(=O)(=O)N2CCN(C(=O)CCl)CC2)c1 [4-F05, 1-[4-(3-acetylbenzenesulfonyl)piperazin-1-yl]-2-chloroethan-1-one]	0.228%
CC(C)c1ccccc1NC(=O)CCl [4-F06, 2-chloro-N-[2-(propan-2-yl)phenyl]acetamide]	1.92%
COC(=O)c1c(-c2ccccc2Cl)csc1NC(=O)CCl [4-F07, methyl 2-(2-chloroacetamido)-4-(2-chlorophenyl)thiophene-3-carboxylate]	5.7%
O=C(CCl)Nc1ccc(S(=O)(=O)N2CCCC2)cc1 [4-F08, 2-chloro-N-[4-(pyrrolidine-1-sulfonyl)phenyl]acetamide]	1.07%
O=C(CCl)Nc1cc(S(=O)(=O)N2CCCCC2)ccc1Cl [4-F09, 2-chloro-N-[2-chloro-5-(piperidine-1-sulfonyl)phenyl]acetamide]	0.505%
CCc1cccc(CC)c1NC(=O)CCl [4-F10, 2-chloro-N-(2,6-diethylphenyl)acetamide]	99.1%
O=C(CCl)N(CC1=CCSC1)c1ccccc1 [4-F11, 2-chloro-N-[(2,5-dihydrothiophen-3-yl)methyl]-N-phenylacetamide]	0.548%
COc1ccc(-c2csc(NC(=O)CCl)n2)c(OC)c1 [4-F12, 2-chloro-N-[4-(2,4-dimethoxyphenyl)-1,3-thiazol-2-yl]acetamide]	0.886%
CC(Cl)C(=O)NCC1COc2ccccc2O1 (stereo not shown) [4-F13, 2-chloro-N-[(2,3-dihydro-1,4-benzodioxin-2-yl)methyl]propanamide]	91.4%
O=C(CCl)Nc1ccc(OC(F)F)c(Cl)c1 [4-F14, 2-chloro-N-[3-chloro-4-(difluoromethoxy)phenyl]acetamide]	0.982%
O=C(CCl)Nc1nnc(SCc2ccccc2)s1 [4-F15, N-[5-(benzylsulfanyl)-1,3,4-thiadiazol-2-yl]-2-chloroacetamide]	0.76%
O=C(CCl)N1CCN(CC=Cc2ccccc2)CC1 [4-F16, 2-chloro-1-[4-(3-phenylprop-2-en-1-yl)piperazin-1-yl]ethan-1-one hydrochloride]	0.223%
COc1ccc(Cc2cnc(NC(=O)CCl)s2)cc1 [4-F17, 2-chloro-N-{5-[(4-methoxyphenyl)methyl]-1,3-thiazol-2-yl}acetamide]	-0.0636%
CC(Cl)C(=O)Nc1ccc(OC(F)F)c(Cl)c1 (stereo not shown) [4-F18, 2-chloro-N-[3-chloro-4-(difluoromethoxy)phenyl]propanamide]	91.5%
CCc1ccc(Cc2cnc(NC(=O)CCl)s2)cc1 [4-F19, 2-chloro-N-{5-[(4-ethylphenyl)methyl]-1,3-thiazol-2-yl}acetamide]	0.0785%
COc1ccc(-n2c(C)c(C)c(C#N)c2NC(=O)CCl)cc1 [4-F20, 2-chloro-N-[3-cyano-1-(4-methoxyphenyl)-4,5-dimethyl-1H-pyrrol-2-yl]acetamide]	0.583%
Cc1cc(NC(=O)CCl)c([N+](=O)[O-])cc1C [4-F21, 2-chloro-N-(4,5-dimethyl-2-nitrophenyl)acetamide]	112%
O=C(CCl)NCc1ccccc1S(=O)(=O)N1CCOCC1 [4-F22, 2-chloro-N-{[2-(morpholine-4-sulfonyl)phenyl]methyl}acetamide]	2.15%
Cc1ccc(Sc2ccc(NC(=O)CCl)cc2)cc1C [4-G03, 2-chloro-N-{4-[(3,4-dimethylphenyl)sulfanyl]phenyl}acetamide]	-0.101%
O=C(CCl)NC(c1ccccc1)c1ccc(Cl)cc1 (stereo not shown) [4-G04, 2-chloro-N-[(4-chlorophenyl)(phenyl)methyl]acetamide]	-0.0119%
Cc1cc(NC(=O)CCl)n(-c2ccccc2)n1 [4-G05, 2-chloro-N-(3-methyl-1-phenyl-1H-pyrazol-5-yl)acetamide]	0.983%
CC(Cl)C(=O)Nc1ccc2c(c1)C(=O)c1ccccc1C2=O (stereo not shown) [4-G06, 2-chloro-N-(9,10-dioxo-9,10-dihydroanthracen-2-yl)propanamide]	58.6%
